In paper PMC10533412, “Phosphoantigens glue butyrophilin 3A1 and 2A1 to activate Vγ9Vδ2 T cells” (Nature, 2023):
Values joined by “and” are separate entries in the source; they are usually repeats but may differ in a detail not shown here. Equal values may be shown once. Read-outs that look alike come from different tables or passages of the source.

Columns and labels:
[1] = system: MIA PaCa-2 cells; test: Cell killing assay: cytotoxicity of Vγ9Vδ2 T cells towards pAg- or zoledronate-treated MIA PaCa-2 cells (luciferase); assay type: cell-based, human; details: Homo sapiens, MIA PaCa-2, read-out: EC50 (M) for MIA PaCa-2 cell lysis mediated by HMBPP analogs and Vγ9Vδ2 T cells
Experimental: (§4) MIA PaCa-2 cells were infected with lentivirus bearing luciferase transgene. Luciferase-positive cells were plated at 5.0 × 10^3 cells per well in 384-well plates 1 day before transfection. All plasmids were transfected into BTN2A^−/− MIA PaCa-2 (BTN2A1/BTN2A2 KO) cells using Lipofectamine 2000 reagent. […] Stable-lite luciferase (Vazyme) was added to each well and the luciferase signal was immediately measured by using the PerkinElmer EnVision microplate reader.
(§5) Percentage of lysis was calculated using the following equation: percentage of specific lysis = (maximum luciferase − experimental luciferase)/maximum luciferase × 100.

[2] = biological target: T1, BTN3A1 B30.2 domain (Homo sapiens, UniProt O00481); test: ITC: pAg binding to the BTN3A1 B30.2 domain; details: 25 °C, read-out: KD, pAg binding to BTN3A1 B30.2 alone
T1 construct: The BTN3A1 B30.2 domain was expressed and purified as described previously; made in house
T1 sequence (O00481 322-513 limits assumed): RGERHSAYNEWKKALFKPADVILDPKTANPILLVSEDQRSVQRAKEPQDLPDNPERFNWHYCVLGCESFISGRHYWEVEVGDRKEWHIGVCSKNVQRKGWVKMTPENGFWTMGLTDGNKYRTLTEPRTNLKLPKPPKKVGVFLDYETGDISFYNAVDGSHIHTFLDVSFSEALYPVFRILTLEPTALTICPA
Experimental: (§1) ITC binding fits were calculated using MicroCal Analysis software.
For pAg binding to the BTN3A1 B30.2 domain, the sample cell and injection syringe were filled with the buffer containing 100 µM protein and 1 mM HMBPP, respectively, or 400 µM protein and 4 mM DMAPP (IPP), respectively.

[3] = system: Vγ9Vδ2 T cells; details: cited from earlier work
[4] = biological target: T2, preconditioned BTN2A1–BTN3A1 B30.2 complex (Homo sapiens, UniProt O00481+Q7KYR7); test: ITC: pAg binding to the preconditioned BTN2A1 B30.2 and BTN3A1 B30.2 complex
T2 construct: The BTN3A1 B30.2 domain was expressed and purified as described previously; 6xHis; made in house; host or cells: Escherichia coli BL21 (DE3) for BTN2A1 B30.2
T2 sequence (O00481 322-513 limits assumed): as above
T2 sequence (Q7KYR7 316-527 limits assumed): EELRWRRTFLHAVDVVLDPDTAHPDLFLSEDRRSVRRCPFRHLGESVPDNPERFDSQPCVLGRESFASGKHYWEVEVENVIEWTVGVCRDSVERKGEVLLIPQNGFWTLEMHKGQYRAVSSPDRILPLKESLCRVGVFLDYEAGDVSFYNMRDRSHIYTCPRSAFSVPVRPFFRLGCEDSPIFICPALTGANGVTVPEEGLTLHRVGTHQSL
Experimental: as §1
For HMBPP binding to the preconditioned BTN2A1 B30.2 and BTN3A1 B30.2 complex, BTN2A1 B30.2 (20 µM) and BTN3A1 B30.2 (10 µM) were incubated in the buffer at a 2:1 ratio and loaded into the sample cell, and the injection syringe was filled with buffer containing 100 µM HMBPP.
For DMAPP/IPP binding to the preconditioned BTN2A1 B30.2 and BTN3A1 B30.2 complex, BTN2A1 B30.2 (200 µM) and BTN3A1 B30.2 (100 µM) were incubated in buffer at a 2:1 ratio and loaded into the sample cell, and the injection syringe was filled with buffer containing 1 mM DMAPP/IPP.
For other pAgs, their concentrations were adjusted to 500 µM, and BTN2A1 B30.2 and BTN3A1 B30.2 were adjusted to 100 µM and 50 µM at a 2:1 ratio.

[5] = biological target: VpBTN3 BFI (Vicugna pacos, UniProt A0A345DF50); test: ITC: pAg binding to VpBTN3 BFI; parameters: species or system alpaca (Vicugna pacos)
Chain of VpBTN3 BFI (A0A345DF50 entry or part of it): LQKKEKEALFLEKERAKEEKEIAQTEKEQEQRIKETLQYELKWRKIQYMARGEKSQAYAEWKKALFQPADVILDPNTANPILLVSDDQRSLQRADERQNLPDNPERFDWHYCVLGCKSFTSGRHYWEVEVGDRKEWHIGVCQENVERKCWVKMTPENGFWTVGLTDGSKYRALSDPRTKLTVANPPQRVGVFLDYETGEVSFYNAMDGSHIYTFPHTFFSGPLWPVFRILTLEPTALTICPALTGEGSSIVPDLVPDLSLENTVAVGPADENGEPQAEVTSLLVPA
Experimental: (§2) ITC experiments were performed using the MicroCal PEAQ-ITC instrument (GE Healthcare) at 25 °C. We used an initial injection of 0.4 μl followed by 19 injections (2 µl each) at 150 s time intervals. ITC binding fits were calculated using MicroCal Analysis software. The samples were prepared using a buffer (20 mM HEPES pH 7.5, 150 mM NaCl).
(§3) ITC experiments of HMBPP, DMAPP or IPP binding to the VpBTN3 BFI (or the preconditioned VpBTN3 BFI and VpBTN2 BFI complex) and VpBTN2 BFI (or VpBTN1 BFI) binding to VpBTN3 BFI in the presence of HMBPP, DMAPP or IPP were performed according to the same procedures as for the BTN3A1 B30.2 and BTN2A1 B30.2.

[6] = system: BTN2A−/− MIA PaCa-2 (BTN2A1/BTN2A2 KO) cells; test: Cell killing assay with BTN2A−/− MIA PaCa-2 (BTN2A1/BTN2A2 KO) cells expressing BTN2A1/BTN2A2 variants; details: replicates and mean
Experimental: as §4, §5

[7] = system: VpBTN1 BFI–VpBTN3 BFI; test: ITC: VpBTN1 BFI binding to VpBTN3 BFI in the presence of pAg; parameters: species or system alpaca (Vicugna pacos)
Experimental: as §2, §3

In the case of `CC(C)=CCOP(=O)(O)OP(=O)(O)O` [Compound 2, 3-methylbut-2-en-1-yl diphosphate], the EC50 [1] is given as 3.38e-05 M, the Kd [2] is given as 120 µM and the “Vγ9Vδ2 T cell activation” value [3] is given as “weakly activate”. For the same compound, the Kd ([4]; ITC, read-out: KD, pAg binding to the preconditioned BTN2A1–BTN3A1 B30.2 complex) was 34.5 µM, the Kd [5] was 92.7 µM and the “Cytotoxicity of Vγ9Vδ2 T cells (percentage of specific lysis)” value ([6]; DMAPP log concentration -3, 2A1 WT cells) was 67.6357% and 66.8005% and 66.45% and 64.9272%. The “Cytotoxicity of Vγ9Vδ2 T cells (percentage of specific lysis)” value ([6]; DMAPP log concentration -3, 2A1 ∆C cells) was 50.07% and 46.3428% and 49.8006% and 54.0592%, the “Cytotoxicity of Vγ9Vδ2 T cells (percentage of specific lysis)” value ([6]; DMAPP log concentration -4, 2A1 WT cells) was 51.6139% and 52.9591% and 50.43% and 46.7133% and the “Cytotoxicity of Vγ9Vδ2 T cells (percentage of specific lysis)” value ([6]; DMAPP log concentration -4, 2A1 ∆C cells) was 32.85% and 28.2229% and 33.1127% and 37.2268%. The “Cytotoxicity of Vγ9Vδ2 T cells (percentage of specific lysis)” value ([6]; DMAPP log concentration -5, 2A1 WT cells) was 27.5187% and 30.1465% and 24.7% and 16.4296%, the “Cytotoxicity of Vγ9Vδ2 T cells (percentage of specific lysis)” value ([6]; DMAPP log concentration -5, 2A1 ∆C cells) was 7.57% and 3.153% and 7.027% and 12.531% and the “Cytotoxicity of Vγ9Vδ2 T cells (percentage of specific lysis)” value ([6]; DMAPP log concentration -6, 2A1 WT cells) was 16.7353% and 16.8396% and 11.83% and 1.904%. For the same compound, the “Cytotoxicity of Vγ9Vδ2 T cells (percentage of specific lysis)” value ([6]; DMAPP log concentration -6, 2A1 ∆C cells) was -5.456% and -7.052% and -6.983% and -2.333%, the “Cytotoxicity of Vγ9Vδ2 T cells (percentage of specific lysis)” value ([6]; DMAPP log concentration -7, 2A1 WT cells) was 14.3939% and 14.8552% and 15.57% and 17.4711% and the “Cytotoxicity of Vγ9Vδ2 T cells (percentage of specific lysis)” value ([6]; DMAPP log concentration -7, 2A1 ∆C cells) was -6.482% and -4.367% and -8.1249% and -6.954%. For the same compound, the “Cytotoxicity of Vγ9Vδ2 T cells (percentage of specific lysis)” value ([6]; DMAPP log concentration -8, 2A1 WT cells) was 15.6376% and 16.0032% and 16.43% and 17.6429%, the “Cytotoxicity of Vγ9Vδ2 T cells (percentage of specific lysis)” value ([6]; DMAPP log concentration -8, 2A1 ∆C cells) was -6.047% and -3.94% and -7.782% and -6.418% and the “Cytotoxicity of Vγ9Vδ2 T cells (percentage of specific lysis)” value ([6]; DMAPP log concentration -9, 2A1 WT cells) was 15.8717% and 18.2997% and 15.33% and 11.8213%. For the same compound, the “Cytotoxicity of Vγ9Vδ2 T cells (percentage of specific lysis)” value ([6]; DMAPP log concentration -9, 2A1 ∆C cells) was -5.239% and -4.736% and -6.266% and -4.716%, the “Cytotoxicity of Vγ9Vδ2 T cells (percentage of specific lysis)” value ([6]; DMAPP log concentration -10, 2A1 WT cells) was 19.1442% and 5.933% and 13.82% and 16.3962% and the “Cytotoxicity of Vγ9Vδ2 T cells (percentage of specific lysis)” value ([6]; DMAPP log concentration -10, 2A1 ∆C cells) was -5.48% and -6.082% and -3.811% and -6.548%. The “VpBTN1 binding to VpBTN3 in the presence of pAg” value [7] was “does not bind”.
In the case of `C=C(C)CCO[P@@](=O)(O)OP(=O)(O)O` [Compound 3, 3-methylbut-3-en-1-yl diphosphate], the EC50 [1] is given as 0.00493 M, the Kd [2] is given as 658 µM and the “Vγ9Vδ2 T cell activation” value [3] is given as “weakly activate”. The Kd [4] was 625 µM, the Kd [5] was 96.1 µM and the “Cytotoxicity of Vγ9Vδ2 T cells (percentage of specific lysis)” value ([6]; IPP log concentration -3, 2A1 WT cells, listed as IPP) was 80.272% and 79.8722% and 80.6% and 81.6589%. The “Cytotoxicity of Vγ9Vδ2 T cells (percentage of specific lysis)” value ([6]; IPP log concentration -3, 2A1 ∆C cells, listed as IPP) was 66.24% and 65.5729% and 68.622% and 64.5211%, the “Cytotoxicity of Vγ9Vδ2 T cells (percentage of specific lysis)” value ([6]; IPP log concentration -4, 2A1 WT cells, listed as IPP) was 65.5992% and 65.1182% and 63.37% and 59.3975% and the “Cytotoxicity of Vγ9Vδ2 T cells (percentage of specific lysis)” value ([6]; IPP log concentration -4, 2A1 ∆C cells, listed as IPP) was 41.6% and 36.6007% and 47.2763% and 40.914%. The “Cytotoxicity of Vγ9Vδ2 T cells (percentage of specific lysis)” value ([6]; IPP log concentration -5, 2A1 WT cells, listed as IPP) was 35.2807% and 27.2598% and 28.66% and 23.4468%, the “Cytotoxicity of Vγ9Vδ2 T cells (percentage of specific lysis)” value ([6]; IPP log concentration -5, 2A1 ∆C cells, listed as IPP) was 1.679% and 1.84% and 2.699% and 0.4994% and the “Cytotoxicity of Vγ9Vδ2 T cells (percentage of specific lysis)” value ([6]; IPP log concentration -6, 2A1 WT cells, listed as IPP) was 15.0716% and 6.17% and 6.634% and -1.341%. The “Cytotoxicity of Vγ9Vδ2 T cells (percentage of specific lysis)” value ([6]; IPP log concentration -6, 2A1 ∆C cells, listed as IPP) was -15.39% and -15.1198% and -17.7309% and -13.3339%, the “Cytotoxicity of Vγ9Vδ2 T cells (percentage of specific lysis)” value ([6]; IPP log concentration -7, 2A1 WT cells, listed as IPP) was 11.2422% and 4.023% and 5.64% and 1.654% and the “Cytotoxicity of Vγ9Vδ2 T cells (percentage of specific lysis)” value ([6]; IPP log concentration -7, 2A1 ∆C cells, listed as IPP) was -18.31% and -18.7728% and -18.1549% and -17.992%. The “Cytotoxicity of Vγ9Vδ2 T cells (percentage of specific lysis)” value ([6]; IPP log concentration -8, 2A1 WT cells, listed as IPP) was 11.2149% and 6.571% and 5.735% and -0.5797%, the “Cytotoxicity of Vγ9Vδ2 T cells (percentage of specific lysis)” value ([6]; IPP log concentration -8, 2A1 ∆C cells, listed as IPP) was -16.71% and -15.5368% and -14.5401% and -20.0505% and the “Cytotoxicity of Vγ9Vδ2 T cells (percentage of specific lysis)” value ([6]; IPP log concentration -9, 2A1 WT cells, listed as IPP) was 7.561% and 7.582% and 2.411% and -7.912%. For the same compound, the “Cytotoxicity of Vγ9Vδ2 T cells (percentage of specific lysis)” value ([6]; IPP log concentration -9, 2A1 ∆C cells, listed as IPP) was -17.93% and -16.44% and -18.8245% and -18.5163%, the “Cytotoxicity of Vγ9Vδ2 T cells (percentage of specific lysis)” value ([6]; IPP log concentration -10, 2A1 WT cells, listed as IPP) was 9.041% and 9.773% and 3.545% and -8.179% and the “Cytotoxicity of Vγ9Vδ2 T cells (percentage of specific lysis)” value ([6]; IPP log concentration -10, 2A1 ∆C cells, listed as IPP) was -16.6% and -16.8802% and -17.0673% and -15.8455%. The “VpBTN1 binding to VpBTN3 in the presence of pAg” value [7] was “does not bind”.
